Test results taken from patent US8440710B2, “HSL inhibitors useful in the treatment of diabetes” (Hoffmann-La Roche Inc., priority 2009, dated 2013).

Molecular target: T1, human HSL (Homo sapiens, UniProt Q05469)
T1 construct: generate a full length human HSL ORF with a 3′-His6 tag; made in house; host or cells: High 5 insect cells (baculovirus, pFast-BAC)
T1 sequence (Q05469 1-1076): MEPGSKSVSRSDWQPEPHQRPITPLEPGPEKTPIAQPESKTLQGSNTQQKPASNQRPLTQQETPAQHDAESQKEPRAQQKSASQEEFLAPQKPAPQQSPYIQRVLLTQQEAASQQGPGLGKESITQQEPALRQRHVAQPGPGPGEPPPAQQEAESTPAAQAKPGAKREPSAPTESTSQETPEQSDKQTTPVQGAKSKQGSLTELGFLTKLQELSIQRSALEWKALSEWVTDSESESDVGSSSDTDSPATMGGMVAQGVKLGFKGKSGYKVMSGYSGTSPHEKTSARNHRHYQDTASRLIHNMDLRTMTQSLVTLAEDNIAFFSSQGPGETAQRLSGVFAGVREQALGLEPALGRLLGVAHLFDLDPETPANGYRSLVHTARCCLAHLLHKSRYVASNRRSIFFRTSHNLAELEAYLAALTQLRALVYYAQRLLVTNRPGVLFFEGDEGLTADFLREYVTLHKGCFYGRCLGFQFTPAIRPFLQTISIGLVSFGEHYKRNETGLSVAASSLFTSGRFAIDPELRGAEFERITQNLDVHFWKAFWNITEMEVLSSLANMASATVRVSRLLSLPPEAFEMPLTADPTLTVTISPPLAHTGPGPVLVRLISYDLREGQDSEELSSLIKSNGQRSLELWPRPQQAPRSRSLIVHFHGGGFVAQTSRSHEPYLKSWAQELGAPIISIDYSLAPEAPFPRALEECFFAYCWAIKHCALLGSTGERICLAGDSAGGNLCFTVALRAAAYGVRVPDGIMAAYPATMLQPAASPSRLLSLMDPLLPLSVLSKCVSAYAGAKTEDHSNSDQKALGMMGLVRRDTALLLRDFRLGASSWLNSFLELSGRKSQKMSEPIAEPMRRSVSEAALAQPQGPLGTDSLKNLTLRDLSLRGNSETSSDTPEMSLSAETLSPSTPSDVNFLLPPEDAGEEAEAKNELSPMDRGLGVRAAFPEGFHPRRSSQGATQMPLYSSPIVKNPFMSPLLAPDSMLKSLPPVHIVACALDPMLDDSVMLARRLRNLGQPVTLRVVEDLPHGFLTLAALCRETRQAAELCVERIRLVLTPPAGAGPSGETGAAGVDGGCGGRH
Assay: Human Hormone-Sensitive Lipase (HSL) enzyme inhibition assay (colorimetric, DMPT substrate)
Format: biochemical
Conditions: human full length HSL-His6, 2,3-dimercapto-1-propanol tributyrate substrate, 37° C. 20 minutes, absorbance at 405 nm; read-out: HSL hum IC50
In short: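 Full-length human HSL with C-terminal His6, expressed in baculovirus-infected High 5 cells and Ni-NTA purified, was added (15 ug/ml stock) to 1.5 mM DMPT in 100 mM MOPS pH 7.2, 0.2 mg/ml fatty acid-free BSA containing compound. After 20 min at 37 °C, DTNB with SDS/Triton X-100 was added; A405 read after 15 min at RT.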

SMILES	IC50 [nM]
CC(C)Oc1ccc(N2CC[C@]3(CC[C@@](O)(C4CCCC4)CC3)C2=O)cc1 [Example 198, (5α,8α)-8-cyclopentyl-8-hydroxy-2-(4-isopropoxyphenyl)-2-aza-spiro[4.5]decan-1-one]	10
CC(C)C[C@]1(O)CC[C@]2(CCN(c3ccc(OC(C)C)cc3)C2=O)CC1 [Example 199, (5α,8α)-8-hydroxy-8-isobutyl-2-(4-isopropoxyphenyl)-2-aza-spiro[4.5]decan-1-one]	10
O=C1N(c2ccc([C@@H](O)C(F)(F)F)cc2)CC[C@]12CC[C@@](O)(C1CCC1)CC2 [Example 200, (5α,8α)-8-cyclobutyl-8-hydroxy-2-(4-((R)-2,2,2-trifluoro-1-hydroxyethyl)phenyl)-2-aza-spiro[4.5]decan-1-one]	20
O=C1N(c2ccc([C@@H](O)C(F)(F)F)cc2)CC[C@]12CC[C@@](O)(C1CC1)CC2 [Example 201, (5α,8α)-8-cyclopropyl-8-hydroxy-2-(4-((R)-2,2,2-trifluoro-1-hydroxyethyl)phenyl)-2-aza-spiro[4.5]decan-1-one]	50
O=C1N(c2ccc([C@@H](O)C(F)(F)F)cc2)CC[C@]12CC[C@@](O)(C1CCCC1)CC2 [Example 202, (5α,8α)-8-cyclopentyl-8-hydroxy-2-(4-((R)-2,2,2-trifluoro-1-hydroxyethyl)phenyl)-2-aza-spiro[4.5]decan-1-one]	10
CC(C)c1ccc(N2CC[C@]3(CC[C@@](O)(C(C)C)CC3)C2=O)cc1 [Example 203, (5α,8α)-8-hydroxy-8-isopropyl-2-(4-isopropylphenyl)-2-aza-spiro[4.5]decan-1-one]	10
CCC[C@]1(O)CC[C@]2(CCN(c3ccc(C(C)C)cc3)C2=O)CC1 [Example 204, (5α,8α)-8-hydroxy-2-(4-isopropylphenyl)-8-propyl-2-aza-spiro[4.5]decan-1-one]	20
CC(C)c1ccc(N2CC[C@]3(CC[C@@](O)(c4ccccc4)CC3)C2=O)cc1 [Example 205, (5α,8α)-8-hydroxy-2-(4-isopropylphenyl)-8-phenyl-2-aza-spiro[4.5]decan-1-one]	10
CC(C)Oc1ccc(N2CC[C@]3(CC[C@@](O)(c4ccccc4)CC3)C2=O)cc1 [Example 206, (5α,8α)-8-hydroxy-2-(4-isopropoxyphenyl)-8-phenyl-2-aza-spiro[4.5]decan-1-one]	10
CC(C)[C@]1(O)CC[C@]2(CCN(c3ccc(C(O)C(F)F)cc3)C2=O)CC1 (stereo partly drawn) [Example 207, (5α,8α)-2-(4-(2,2-difluoro-1-hydroxyethyl)phenyl)-8-hydroxy-8-isopropyl-2-aza-spiro[4.5]decan-1-one]	90
CCC[C@]1(O)CC[C@]2(CCN(c3ccc(C(F)(F)F)cc3)C2=O)CC1 [Example 208, (5α,8α)-8-hydroxy-8-propyl-2-(4-(trifluoromethyl)phenyl)-2-aza-spiro[4.5]decan-1-one]	30
CC(C)[C@]1(O)CC[C@]2(CCN(c3ccc(C(F)(F)F)cc3)C2=O)CC1 [Example 209, (5α,8α)-8-hydroxy-8-isopropyl-2-(4-(trifluoromethyl)phenyl)-2-aza-spiro[4.5]decan-1-one]	30
COC[C@]1(O)CC[C@]2(CCN(c3ccc(OC(C)C)cc3)C2=O)CC1 [Example 210, (5α,8α)-8-hydroxy-2-(4-isopropoxyphenyl)-8-(methoxymethyl)-2-aza-spiro[4.5]decan-1-one]	50
CC(C)Oc1ccc(N2CC[C@]3(CC[C@@](O)(c4ccsc4)CC3)C2=O)cc1 [Example 211, (5α,8α)-8-hydroxy-2-(4-isopropoxyphenyl)-8-(thiophen-3-yl)-2-aza-spiro[4.5]decan-1-one]	10
CC(C)Oc1ccc(N2CC[C@]3(CC[C@@](O)(c4c(Br)nnn4C)CC3)C2=O)cc1 [Example 212, (5α,8α)-8-(5-Bromo-3-methyl-3H-[1,2,3]triazol-4-yl)-8-hydroxy-2-(4-isopropoxy-phenyl)-2-aza-spiro[4.5]decan-1-one]	10
CC(C)Oc1ccc(N2CC[C@]3(CC[C@@](O)(c4cnnn4C)CC3)C2=O)cc1 [Example 213]	390

SMILES	IC50 [nM]
Cn1nnc(Br)c1[C@]1(O)CC[C@]2(CCN(c3ccc(C(F)(F)F)cc3)C2=O)CC1 [Example 214, (5α,8α)-8-(5-Bromo-3-methyl-3H-[1,2,3]triazol-4-yl)-8-hydroxy-2-(4-trifluoromethyl-phenyl)-2-aza-spiro[4.5]decan-1-one]	50
Cn1nncc1[C@]1(O)CC[C@]2(CCN(c3ccc(C(F)(F)F)cc3)C2=O)CC1 [Example 215, (5α,8α)-8-Hydroxy-8-(3-methyl-3H-[1,2,3]triazol-4-yl)-2-(4-trifluoromethyl-phenyl)-2-aza-spiro[4.5]decan-1-one]	590
CC(C)c1ccc(N2CC[C@]3(CC[C@@](O)(COCC(F)(F)F)CC3)C2=O)cc1 [Example 216, (5α,8α)-8-hydroxy-2-(4-isopropylphenyl)-8-((2,2,2-trifluoroethoxy)methyl)-2-aza-spiro[4.5]decan-1-one]	10
CC(C)Oc1ccc(N2CC[C@]3(CC[C@@](O)(c4ccn(C)n4)CC3)C2=O)cc1 [Example 217, (5α,8α)-8-hydroxy-2-(4-isopropoxyphenyl)-8-(1-methyl-1H-pyrazol-3-yl)-2-aza-spiro[4.5]decan-1-one]	50
COC[C@]1(O)CC[C@]2(CCN(c3ccc(C(C)C)cc3)C2=O)CC1 [Example 218, (5α,8α)-8-hydroxy-2-(4-isopropylphenyl)-8-(methoxymethyl)-2-aza-spiro[4.5]decan-1-one]	40
O=C1N(c2ccc(C(F)(F)F)cc2)CC[C@]12CC[C@@](O)(COCC(F)(F)F)CC2 [Example 219, (5α,8α)-8-hydroxy-8-((2,2,2-trifluoroethoxy)methyl)-2-(4-(trifluoromethyl)phenyl)-2-aza-spiro[4.5]decan-1-one]	11
Cc1cc(C[C@]2(O)CC[C@]3(CCN(c4ccc(OC(C)C)cc4)C3=O)CC2)no1 [Example 220]	20
Cc1cc(C[C@]2(O)CC[C@@]3(CCN(c4ccc(OC(C)C)cc4)C3=O)CC2)no1 [Example 221, (5α,8β)-8-hydroxy-2-(4-isopropoxyphenyl)-8-((5-methylisoxazol-3-yl)methyl)-2-aza-spiro[4.5]decan-1-one]	1160
C=Cc1nnn(C)c1[C@]1(O)CC[C@]2(CCN(c3ccc(OC(C)C)cc3)C2=O)CC1 [Example 222, (5α,8α)-8-hydroxy-2-(4-isopropoxyphenyl)-8-(1-methyl-4-vinyl-1H-1,2,3-triazol-5-yl)-2-aza-spiro[4.5]decan-1-one]	103
COC[C@]1(O)CC[C@]2(CCN(c3ccc(C4CC4)cc3)C2=O)CC1 [Example 223, (5α,8α)-2-(4-Cyclopropyl-phenyl)-8-hydroxy-8-methoxymethyl-2-aza-spiro[4.5]decan-1-one]	50
CCc1ccc(N2CC[C@]3(CC[C@@](O)(COC)CC3)C2=O)cc1 [Example 224, (5α,8α)-2-(4-Ethyl-phenyl)-8-hydroxy-8-methoxymethyl-2-aza-spiro[4.5]decan-1-one]	150
CCOC[C@]1(O)CC[C@]2(CCN(c3ccc(CC)cc3)C2=O)CC1 [Example 225, (5α,8α)-8-Ethoxymethyl-2-(4-ethyl-phenyl)-8-hydroxy-2-aza-spiro[4.5]decan-1-one]	60
CCCOC[C@]1(O)CC[C@]2(CCN(c3ccc(CC)cc3)C2=O)CC1 [Example 226, (5α,8α)-2-(4-Ethyl-phenyl)-8-hydroxy-8-propoxymethyl-2-aza-spiro[4.5]decan-1-one]	20
CCc1ccc(N2CC[C@]3(CC[C@](O)(COc4ccccc4)CC3)C2=O)cc1 [Example 227, (5α,8β)-2-(4-Ethyl-phenyl)-8-hydroxy-8-phenoxymethyl-2-aza-spiro[4.5]decan-1-one]	700
CCc1ccc(N2CC[C@]3(CC[C@@](O)(COc4ccccc4)CC3)C2=O)cc1 [Example 228, (5α,8α)-2-(4-Ethyl-phenyl)-8-hydroxy-8-phenoxymethyl-2-aza-spiro[4.5]decan-1-one]	20
